According to patent US20080064679A1, “Water Soluble Cannabinoids” (priority 2004, published 2008):
Values joined by “and” are separate entries in the source; they are usually repeats but may differ in a detail not shown here. Identical values can stand only once. Like-named read-outs stand apart in the source and are kept apart here.

Target: T1, human CB2 receptor (Homo sapiens, UniProt P34972)
T1 construct: expressed in transfected cells; b94 says HEK for CB2
Assay: CB2 receptor binding, [3H]CP55,940 displacement in membranes of transfected cells
Conditions: mean±SEM, read-out: CB2 Ki
Experimental: cLogP calculations. Absolute solubility determinations were not performed. Rather, cLogP calculations were performed using the CS ChemDraw Ultra software (Cambridge Soft Corporation, Cambridge, Mass.). Receptor Binding. HEK-293 cells stably expressing the human CB1 receptor were cultured in DMEM with 10% FBS and Chinese Hamster Ovary (CHO) cells stably expressing the human CB2 receptor were cultured in DMEM with 10% FCS. Cells were harvested by replacement of the media with cold phosphate-buffered saline containing 1 mM EDTA followed by centrifugation at 1000×g for 5 min at 4° C. The pellet was resuspended in 50 mM Tris-HCl containing 320 mM sucrose, 2 mM EDTA and 5 mM MgCl2 (pH 7.4) (centrifugation buffer), then centrifuged at 1000×g for 10 min at 4° C., and the resulting supernatant was saved. This process was repeated twice. The supernatant fractions were combined and centrifuged at 40,000×g for 30 min at 4° C. The resulting P2 pellet was resuspended in assay buffer (50 mM Tris-HCl (pH 7.4), 3 mM MgCl2, 0.2 mM EGTA, and 100 mM NaCl) and protein was determined by the method of Bradford ENRfu(Bradford 1976). Membranes were stored at −80° C. until use. […] The assay was incubated at 30° C. for 1 hr and terminated by addition of ice cold 50 mM Tris-HCl plus BSA (1 mg/ml) (pH 7.4) followed by filtration under vacuum through Whatman GF/B glass fiber filters with 3 washes with cold Tris buffer. Bound radioactivity was determined by liquid scintillation spectrophotometry at 50% efficiency after extraction by shaking samples for 30-60 min with Budget-Solve scintillation fluid. Data are reported as the mean±SEM of three experiments, each performed in triplicate. Ki values were calculated from displacement data using EBDA (Equilibrium Binding Data Analysis; BIOSOFT, Milltown, N.J.). [^35S]GTPγS Binding Assays. Concentration-effect curves were generated by incubating membranes (10 μg prepared from CB1 expressing cells as described above) in assay buffer containing BSA (1 mg/ml) with various concentrations of test compounds in the presence of 20 μM GDP and 0.1 nM [^35S]GTPγS in a 1 ml total volume. […] Basal binding was assessed in the absence of agonist, and nonspecific binding was measured in the presence of 10 μM GTPγS. The reaction was incubated for 90 min at 30° C. and terminated by filtration under vacuum through Whatman GF/B glass fiber filters with 3 washes with cold (4° C.) Tris buffer (50 mM Tris-HCl, pH 7.4). Bound radioactivity was determined by liquid scintillation spectrophotometry at 95% efficiency after extraction overnight in ScintiSafe Econo 1 scintillation fluid. Data are reported as mean±SEM of three experiments, each performed in triplicate. Nonlinear regression analysis was conducted by iterative fitting using JMP (SAS for Macintosh). Net-stimulated [^35S]GTPγS binding is defined as [^35S]GTPγS binding in the presence of drug minus basal and percent stimulation is expressed as (net stimulated [^35S]GTPγS binding/basal)×100%. Behavioral Evaluations. All animals were allowed to acclimate to the observation room overnight. Behavioral effects were assessed in the tetrad model in order to measure potency in producing antinociception, catalepsy, hypothermia, and hypomobility. The baselines for tail-flick latency (2-4 seconds) and rectal temperature were determined prior to i.v. injections. Baseline rectal temperatures were measured using a telethermometer and a thermometer probe inserted to 25 mm (Yellow Springs Instrument Co., Yellow Springs, Ohio). The mice were then given either an i.v. i.c.v. injection of the analog. The mice were placed in individual photocell activity chambers 5 min later. Spontaneous activity was monitored for 10 min in a Digiscan Animal Activity Monitor (Omnitech Electronice, Inc., Columbus, Ohio) as measured by the number of interruptions of 16 photocell beams per chamber. The total number of beam interruptions during the 10-min period was determined and presented as total counts.

T1 sequence (P34972 whole entry): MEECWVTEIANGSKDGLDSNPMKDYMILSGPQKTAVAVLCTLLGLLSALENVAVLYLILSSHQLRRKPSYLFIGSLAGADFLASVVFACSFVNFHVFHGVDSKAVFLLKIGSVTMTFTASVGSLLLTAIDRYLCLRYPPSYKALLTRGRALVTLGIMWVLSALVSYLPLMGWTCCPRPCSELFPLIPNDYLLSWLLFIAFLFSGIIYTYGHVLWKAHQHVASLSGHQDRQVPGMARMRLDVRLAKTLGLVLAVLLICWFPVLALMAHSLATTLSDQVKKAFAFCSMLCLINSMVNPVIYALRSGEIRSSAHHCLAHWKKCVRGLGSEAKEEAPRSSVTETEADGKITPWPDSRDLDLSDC

## 1-(2-methyl-4-N-piperidinobutyryloxy) [O-2374]
Tables 2b, 3b, 4a
  Ki: 1.1 ± 0.1 nM

## CC1=CC[C@@H]2[C@@H](C1)c1c(O)cc(C(C)(C)CCCCC(N)=O)cc1OC2(C)C [O-2352, Carboxamido]
Table 1B
  Ki: 0.84 ± 0.05 nM

## CC1=CC[C@@H]2[C@@H](C1)c1c(O)cc(C(C)(C)CCCCC(=O)N3CCOCC3)cc1OC2(C)C [O-2372, Morpholino-carboxamido]
Table 1B
  Ki: 0.57 ± 0.04 nM

## CC1=CC[C@@H]2[C@@H](C1)c1c(O)cc(C(C)(C)CCCCC(=O)N3CCCCC3)cc1OC2(C)C [O-2373, Piperidino-carboxamido]
Table 1B
  Ki: 0.96 ± 0.01 nM

## CC1=CC[C@@H]2[C@@H](C1)c1c(O)cc(C(C)(C)CCCCC(=O)N3CCN(C)CC3)cc1OC2(C)C [O-2381, Methylepiperazino-carboxamido]
Table 1B
  Ki: 389 ± 46 nM

## CC1=CC[C@@H]2[C@@H](C1)c1c(O)cc(C(C)(C)CCCCC(=O)N3CCCC3)cc1OC2(C)C [O-2399, Pyrrolidino-carboxamido]
Table 1B
  Ki: 2.86 ± 0.68 nM

## CC1=CC[C@@H]2[C@@H](C1)c1c(O)cc(C(C)(C)CCCCC(=O)N3CCCCCC3)cc1OC2(C)C [O-2421, Homopiperidino-carboxamido]
Table 1B
  Ki: 3.45 ± 0.58 nM

## CC1=CC[C@@H]2[C@@H](C1)c1c(O)cc(C(C)(C)CCCCC(=O)NN3CCCCCC3)cc1OC2(C)C [O-2489, N-(Homo-piperidin-1-yl)-carboxamido]
Table 1B
  Ki: 35.3 ± 4.48 nM

## CNC(=O)CCCCC(C)(C)c1cc(O)c2c(c1)OC(C)(C)[C@@H]1CC=C(C)C[C@@H]21 [O-2490, N-(Methyl)carboxamido]
Table 1B
  Ki: 3.16 ± 0.75 nM

## CC1=CC[C@@H]2[C@@H](C1)c1c(O)cc(C(C)(C)CCCCC(=O)NN3CCCC3)cc1OC2(C)C [O-2543, N-(Pyrrolidin-yl)-carboxamido]
Table 1B
  Ki: 10.8 ± 0.08 nM

## CC1=CC[C@@H]2[C@@H](C1)c1c(O)cc(C(C)(C)CCCCC(=O)NN3CCOCC3)cc1OC2(C)C [O-2544, N-(Morpholin-1-yl)-carboxamido]
Table 1B
  Ki: 11.4 ± 0.91 nM

## CC1=CC[C@@H]2[C@@H](C1)c1c(O)cc(C(C)(C)CCCCn3ccnc3)cc1OC2(C)C [O-2545, Imidazol-1-yl]
Tables 2b, 3b, 4a
  Ki: 0.12 nM and 0.32 nM

## CC1=CC[C@@H]2[C@@H](C1)c1c(O)cc(C(C)(C)CCCCn3ccnc3C)cc1OC2(C)C [O-2651, 2-Methyl-imidazol-1-y1]
Tables 2b, 3b, 4a
  Ki: 1.22 ± 0.28 nM

## CC1=CC[C@@H]2C(C1)c1c(OC(=O)CCCN(C(C)C)C(C)C)cc(C(C)(C)CCCCC(=O)N3CCOCC3)cc1OC2(C)C (some centres unmarked) [O-2694, Diisopropylaminobutyrate of Δ^8-THC-3-(1,1-dimethyl-6-morpholin-4-yl-6-oxo-hexyl)]
Tables 2b, 3b, 4a
  Ki: 2.77 ± 0.44 nM

## CC1=CC[C@@H]2[C@@H](C1)c1c(O)cc(C(C)(C)CCCCn3cccn3)cc1OC2(C)C [O-2715, Pyrazol-1-yl]
Tables 2b, 3b, 4a
  Ki: 1.52 ± 0.31 nM

## CC1=CC[C@@H]2[C@@H](C1)c1c(O)cc(C(C)(C)CCCCn3cncn3)cc1OC2(C)C [O-2716, 1,2,4-Triazol-1-yl]
Tables 2b, 3b, 4a
  Ki: 0.92 ± 0.07 nM

## CC1=CC[C@@H]2[C@@H](C1)c1c(O)cc(C(C)(C)CCCCc3ncc[nH]3)cc1OC2(C)C [O-2737, 1H-Imidazol-2-yl]
Tables 2b, 3b, 4a
  Ki: 14.8 ± 1.14 nM
